Laboratory results reported in patent publication US20260165321A1, “FUMIGANT COMPOSITION FOR PEST CONTROL” (priority 2020, published 2026).
In brackets after ≈: the same amount, converted by molar mass.

Columns and labels:
Format in all cases: in vivo
[1] = system: rice weevil (Sitophilus oryzae); settings: adult rice weevil, fumigation 2 hours, about 24° C., 1-liter container
From the text: (§1) The poisoning ability index used in the following examples is the internationally commonly used median lethal concentration (LC50), which refers to a dosage required to kill 50% of a group of tested insects. The main test method is to include a number of tested insect (adults or larvae) and the examined chemical at a wide range of dosage in a 1-liter airtight transparent containers for a period of time. Afterward, the airtight containers were opened for ventilation, and the dead insects in the containers were counted. The linear regression between the mortality, expressed as probability unit, and the log dosage was analyzed using the software Priprobit v1.63, from which the value of LC50 could be obtained.
Put 30 adult insects of rice weevil (Sitophilus oryzae) into each of a group of 1-liter transparent containers, on which the name of tested chemical and the predetermined dosage are marked. Wherein, the chemicals to be tested include 2,5-dimethylfuran, 2,5-dimethylthiophene, 2-methylfuran, 2-methylthiophene, 2-ethylfuran and 2-ethylthiophene. The airtight containers, which contain the insect and chemical, are left at room temperature of about 24° C. for 2 hours. Afterward, the containers are opened for ventilation, and the dead rice weevils (Sitophilus oryzae) in each of the containers are counted. The linear regression between mortality and log dosage is analyzed using the software Priprobit v1.63, from which the lethal concentrations 50% (LC50) and 95% (LC95) are calculated.

[2] = system: brown planthopper (Nilaparvata lugens); assay: Fumigant toxicity test (1), 2 h in 1-liter airtight container; settings: fumigation 2 hours, ~24° C., 30 insects, doses 0-180 mg/dm^3
From the text: as §1
(§2) Take several 1-liter airtight transparent containers marked with different doses of 2,5-dimethylfuran, then put 30 insects into each of the transparent containers and add 2,5-dimethylfuran with marked doses (0, 18, 45, 90, 180 mg/dm^3), respectively, into each of the transparent containers. Place the containers at room temperature (˜24° C.) for 2 hours, and then quantitate the dead insects in each of the transparent containers. Wherein, the insects used include German cockroach (Blattella germanica), green peach aphid (Myzus persicae), brown planthopper (Nilaparvata lugens), diamondback moth (Plutella xylostella), rice weevil (Sitophilus oryzae), lesser grain borer (Rhyzopertha dominica), and sweet potato weevil (Cylas formicarius).

[3] = system: green peach aphid (Myzus persicae); assay: as above; settings: fumigation 2 hours, ~24° C., 30 insects, doses 0-180 mg/dm^3
From the text: as §1, §2

[4] = system: diamondback moth (Plutella xylostella); assay: as above; settings: fumigation 2 hours, ~24° C., 30 insects, doses 0-180 mg/dm^3
From the text: as §1, §2

[5] = system: lesser grain borer (Rhyzopertha dominica); assay: as above; settings: fumigation 2 hours, ~24° C., 30 insects, doses 0-180 mg/dm^3
From the text: as §1, §2

[6] = system: German cockroach (Blattella germanica); assay: as above; settings: fumigation 2 hours, ~24° C., 30 insects, doses 0-180 mg/dm^3
From the text: as §1, §2

[7] = system: rice weevil (Sitophilus oryzae); assay: as above; settings: fumigation 2 hours, ~24° C., 30 insects, doses 0-180 mg/dm^3
From the text: as §1, §2

| SMILES | LC95 [95% CI] [1] [µg/mL] | also measured |
| --- | --- | --- |
| CCc1ccco1 [2-ethylfuran] | 146.5 (≈ 1520 µM) |  |
| Cc1ccc(C)s1 [2,5-dimethylthiophene] | 135.3 (≈ 1210 µM) |  |
| Cc1ccco1 [2-methylfuran] | 329.7 (≈ 4020 µM) |  |
| Cc1cccs1 [2-methylthiophene] | 54.6 (≈ 556 µM) |  |
| CCc1cccs1 [2-ethylthiophene] | 20.6 (≈ 184 µM) |  |
| Cc1ccc(C)o1 [2,5-dimethylfuran] | 111.6 (≈ 1160 µM) | administered dosage required to kill all the tested individuals [2]: 90 mg/L; administered dosage enough to kill all the tested individuals [3]: 18 mg/L; administered dosage required to kill all the tested individuals [4]: 90 mg/L; administered dosage enough to kill all the tested individuals [5]: 18 mg/L; administered dosage required to kill all the tested individuals [6]: 90 mg/L; administered dosage required to kill all the tested individuals [7]: 90 mg/L |
